Measurements published in patent US12441695B2, “Substituted thiadiazinone dioxide and preparation method therefor, herbicidal composition, and application therefor” (Qingdao Kingagroot Chemical Compound Co., Ltd., priority 2019, dated 2025).

Legend:
[1] = tested on: monocotyledonous and dicotyledonous weeds; experiment: Experiment on weeding effect in post-emergence stage (weeds); type: in vivo; details: 600 g/ha active ingredient plus water 450 kg/ha, 3 weeks after application, fresh weight control rate; for Amaranthus retroflexus activity level (growth control rate): fomesafen-resistant Amaranthus retroflexus
Excerpt: The activity level criteria for plant damage (i.e., growth control rate) are as follows: • Level 5: growth control rate is above 85%; • Level 4: growth control rate is greater than or equal to 60% and less than 85%; • Level 3: growth control rate is greater than or equal to 40% and less than 60%; • Level 2: growth control rate is greater than or equal to 20% and less than 40%; • Level 1: growth control rate is greater than or equal to […]; • Level 0: growth control rate is less than 5%.
(§1) The above growth control rates are fresh weight control rates.
(§2) (1) Experiment on weeding effect in post-emergence stage: monocotyledonous and dicotyledonous weed seeds and major crop seeds (wheat, corn, rice, soybean, cotton, oilseed rape, millet, sorghum) were placed in plastic pots filled with soil, then covered with 0.5-2 cm of soil, allowed to grow in a good greenhouse environment. After 2-3 weeks of sowing, the test plants were treated. The tested compounds of the present invention were respectively dissolved in acetone, then added with Tween 80, diluted with a certain amount of water to obtain a solution with a certain concentration, and sprayed with a spray tower onto the plants. After the application, the plants were cultured for 3 weeks in the greenhouse, and then the experimental results of the weeding were listed in Table 2.

[2] = tested on: major crops (wheat, corn, rice, soybean, cotton, oilseed rape, millet, sorghum); experiment: Experiment on weeding effect in post-emergence stage (crops); type: in vivo; details: 600 g/ha active ingredient plus water 450 kg/ha, 3 weeks after application; for corn plant damage level (growth control rate): crop corn; for rice plant damage level (growth control rate): crop rice; for soybean plant damage level (growth control rate): crop soybean
Method: as §1
as §2, with “plants.” for “plants. After the application, the plants were cultured for 3 weeks in the greenhouse, and then the experimental results of the weeding were listed in Table 2.”

| Compound | Amaranthus retroflexus activity level (growth control rate) [1] | Digitaria sanguinalis activity level (growth control rate) [1] | Echinochloa crus-galli activity level (growth control rate) [1] | Setaria viridis activity level (growth control rate) [1] | corn plant damage level (growth control rate) [2] | rice plant damage level (growth control rate) [2] | soybean plant damage level (growth control rate) [2] |
| --- | --- | --- | --- | --- | --- | --- | --- |
| CC(=O)N1c2c(F)cc(F)cc2C(=O)N(C(C)C)S1(=O)=O [Compound 150] | 5 (Level 5: growth control rate is above 85%) | 5 (Level 5: growth control rate is above 85%) | 5 (Level 5: growth control rate is above 85%) | 5 (Level 5: growth control rate is above 85%) | 1 (Level 1: growth control rate is greater than or equal to 500 and less than 200%) | 1 (Level 1: growth control rate is greater than or equal to 500 and less than 200%) | 1 (Level 1: growth control rate is greater than or equal to 500 and less than 200%) |
| CCOC(=O)OC(C)N1c2c(F)cc(F)cc2C(=O)N(C(C)C)S1(=O)=O (stereo not shown) [Compound 151] | 5 (Level 5: growth control rate is above 85%) | 5 (Level 5: growth control rate is above 85%) | 5 (Level 5: growth control rate is above 85%) | 5 (Level 5: growth control rate is above 85%) | 1 (Level 1: growth control rate is greater than or equal to 500 and less than 200%) | 1 (Level 1: growth control rate is greater than or equal to 500 and less than 200%) | 1 (Level 1: growth control rate is greater than or equal to 500 and less than 200%) |
| CC(=O)N1c2c(Cl)cc(F)cc2C(=O)N(C(C)C)S1(=O)=O [Compound 152] | 5 (Level 5: growth control rate is above 85%) | 5 (Level 5: growth control rate is above 85%) | 5 (Level 5: growth control rate is above 85%) | 5 (Level 5: growth control rate is above 85%) | 0 (Level 0: growth control rate is less than 5%) | 0 (Level 0: growth control rate is less than 5%) | 1 (Level 1: growth control rate is greater than or equal to 500 and less than 200%) |
| CCOC(=O)OC(C)N1c2c(Cl)cc(F)cc2C(=O)N(C(C)C)S1(=O)=O (stereo not shown) [Compound 153] | 5 (Level 5: growth control rate is above 85%) | 5 (Level 5: growth control rate is above 85%) | 5 (Level 5: growth control rate is above 85%) | 5 (Level 5: growth control rate is above 85%) | 0 (Level 0: growth control rate is less than 5%) | 0 (Level 0: growth control rate is less than 5%) | 1 (Level 1: growth control rate is greater than or equal to 500 and less than 200%) |
| CC(=O)N1c2c(Br)cc(F)cc2C(=O)N(C(C)C)S1(=O)=O [Compound 154] | 5 (Level 5: growth control rate is above 85%) | 5 (Level 5: growth control rate is above 85%) | 5 (Level 5: growth control rate is above 85%) | 5 (Level 5: growth control rate is above 85%) | 0 (Level 0: growth control rate is less than 5%) | 0 (Level 0: growth control rate is less than 5%) | 1 (Level 1: growth control rate is greater than or equal to 500 and less than 200%) |
| CCOC(=O)OC(C)N1c2c(Br)cc(F)cc2C(=O)N(C(C)C)S1(=O)=O (stereo not shown) [Compound 155] | 5 (Level 5: growth control rate is above 85%) | 5 (Level 5: growth control rate is above 85%) | 5 (Level 5: growth control rate is above 85%) | 5 (Level 5: growth control rate is above 85%) | 0 (Level 0: growth control rate is less than 5%) | 0 (Level 0: growth control rate is less than 5%) | 1 (Level 1: growth control rate is greater than or equal to 500 and less than 200%) |
| CCN1C(=O)c2cc(F)ccc2NS1(=O)=O [Compound 157] | 3 (Level 3: growth control rate is greater than or equal to 40% and less than 60%) |  |  |  | 0 (Level 0: growth control rate is less than 5%) | 0 (Level 0: growth control rate is less than 5%) | 0 (Level 0: growth control rate is less than 5%) |
| CCC(C)N1C(=O)c2cc(F)ccc2NS1(=O)=O (stereo not shown) [Compound 161] |  |  |  | 3 (Level 3: growth control rate is greater than or equal to 40% and less than 60%) | 0 (Level 0: growth control rate is less than 5%) | 1 (Level 1: growth control rate is greater than or equal to 500 and less than 200%) | 0 (Level 0: growth control rate is less than 5%) |
| CCCC(C)N1C(=O)c2cc(F)ccc2NS1(=O)=O (stereo not shown) [Compound 163] | 3 (Level 3: growth control rate is greater than or equal to 40% and less than 60%) |  |  |  |  | 0 (Level 0: growth control rate is less than 5%) |  |
| CCN1c2ccc(F)cc2C(=O)N(C(C)C)S1(=O)=O [Compound 176] | 5 (Level 5: growth control rate is above 85%) |  |  |  | 0 (Level 0: growth control rate is less than 5%) | 0 (Level 0: growth control rate is less than 5%) | 0 (Level 0: growth control rate is less than 5%) |
| CCC(=O)N1c2ccc(F)cc2C(=O)N(C(C)C)S1(=O)=O [Compound 179] | 5 (Level 5: growth control rate is above 85%) |  | 5 (Level 5: growth control rate is above 85%) | 3 (Level 3: growth control rate is greater than or equal to 40% and less than 60%) | 0 (Level 0: growth control rate is less than 5%) | 1 (Level 1: growth control rate is greater than or equal to 500 and less than 200%) | 1 (Level 1: growth control rate is greater than or equal to 500 and less than 200%) |
| CCCCC(=O)N1c2ccc(F)cc2C(=O)N(C(C)C)S1(=O)=O [Compound 181] | 5 (Level 5: growth control rate is above 85%) |  |  |  | 0 (Level 0: growth control rate is less than 5%) | 0 (Level 0: growth control rate is less than 5%) | 0 (Level 0: growth control rate is less than 5%) |
| CC(C)N1C(=O)c2cc(F)ccc2N(C(=O)C(C)(C)C)S1(=O)=O [Compound 182] | 3 (Level 3: growth control rate is greater than or equal to 40% and less than 60%) |  |  |  | 0 (Level 0: growth control rate is less than 5%) | 0 (Level 0: growth control rate is less than 5%) | 0 (Level 0: growth control rate is less than 5%) |
